According to ChEMBL document CHEMBL1201862, “PubChem BioAssay data set” (2004):
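Cells were grown in 96-well plates and exposed to each compound for 48 hours at five concentrations; endpoints were interpolated linearly between bracketing concentrations, or set to the highest concentration if not reached. At the GI50, growth is halved.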 Calls of active or inactive are those of the source. Rule as the data show it: active = GI50 up to about 1.1 µM and inactive = higher.

Columns and labels:
Test in all cases: NCI tumour cell line growth inhibition, 48 h
M14 = tested on: M14
OVCAR-3 = tested on: OVCAR-3
SR = tested on: SR
A549 = tested on: A549
HT-29 = tested on: HT-29
NCI-H226 = tested on: NCI-H226
SNB-19 = tested on: SNB-19
PC-3 = tested on: PC-3
LOX IMVI = tested on: LOX IMVI
UO-31 = tested on: UO-31
OVCAR-5 = tested on: OVCAR-5
SK-MEL-5 = tested on: SK-MEL-5
Malme-3M = tested on: Malme-3M
UACC-62 = tested on: UACC-62
A498 = tested on: A498
SF-295 = tested on: SF-295
SK-OV-3 = tested on: SK-OV-3
NCI-H23 = tested on: NCI-H23
SW-620 = tested on: SW-620
COLO 205 = tested on: COLO 205
SK-MEL-2 = tested on: SK-MEL-2
OVCAR-4 = tested on: OVCAR-4
SK-MEL-28 = tested on: SK-MEL-28
TK-10 = tested on: TK-10
SN12C = tested on: SN12C
HOP-92 = tested on: HOP-92
OVCAR-8 = tested on: OVCAR-8
NCI-H460 = tested on: NCI-H460
MDA-N = tested on: MDA-N
Hs-578T = tested on: Hs-578T
MCF7 = tested on: MCF7
MDA-MB-231 = tested on: MDA-MB-231
CAKI-1 = tested on: CAKI-1
BT-549 = tested on: BT-549
RPMI-8226 = tested on: RPMI-8226
KM12 = tested on: KM12
HL-60 = tested on: HL-60
IGROV-1 = tested on: IGROV-1
SF-268 = tested on: SF-268
K562 = tested on: K562
CCRF-CEM = tested on: CCRF-CEM
DU-145 = tested on: DU-145
786-0 = tested on: 786-0
EKVX = tested on: EKVX
ACHN = tested on: ACHN
UACC-257 = tested on: UACC-257
MOLT-4 = tested on: MOLT-4
NCI-H522 = tested on: NCI-H522
T47D = tested on: T47D
SNB-75 = tested on: SNB-75
NCI/ADR-RES = tested on: NCI/ADR-RES
RXF 393 = tested on: RXF 393
SF-539 = tested on: SF-539
HCT-116 = tested on: HCT-116
HCT-15 = tested on: HCT-15
MDA-MB-435 = tested on: MDA-MB-435
U-251 = tested on: U-251
HCC 2998 = tested on: HCC 2998
HOP-62 = tested on: HOP-62
DMS-273 = tested on: DMS-273
KM-20L2 = tested on: KM-20L2
SNB-78 = tested on: SNB-78
M19-MEL = tested on: M19-MEL

For `CN(C)CCCNC(=O)c1cn2c(ccc3sc4ccccc4c(=O)c32)n1`, the GI50 (M14) was 12.9 µM (inactive), the GI50 (OVCAR-3) was 10.7 µM (inactive) and the GI50 (SR) was 1.95 µM (inactive). The GI50 (A549) was 9.14 µM (inactive), the GI50 (HT-29) was 1.3 µM (inactive) and the GI50 (NCI-H226) was 17.3 µM (inactive). The GI50 (SNB-19) was 15.1 µM (inactive), the GI50 (PC-3) was 4.8 µM (inactive) and the GI50 (LOX IMVI) was 1.41 µM (inactive). The GI50 (UO-31) was 10.8 µM (inactive), the GI50 (OVCAR-5) was 10.6 µM (inactive) and the GI50 (SK-MEL-5) was 1.55 µM (inactive). The GI50 (Malme-3M) was 8.99 µM (inactive), the GI50 (UACC-62) was 17.9 µM (inactive) and the GI50 (A498) was 14.6 µM (inactive). For the same compound, the GI50 (SF-295) was 5.36 µM (inactive), the GI50 (SK-OV-3) was 16.9 µM (inactive) and the GI50 (NCI-H23) was 13.4 µM (inactive). The GI50 (SW-620) was 1.51 µM (inactive), the GI50 (COLO 205) was 3.77 µM (inactive) and the GI50 (SK-MEL-2) was 21.5 µM (inactive). The GI50 (OVCAR-4) was 13.6 µM (inactive), the GI50 (SK-MEL-28) was 5.46 µM (inactive) and the GI50 (TK-10) was 16.5 µM (inactive). For the same compound, the GI50 (SN12C) was 4.56 µM (inactive), the GI50 (HOP-92) was 2.15 µM (inactive) and the GI50 (OVCAR-8) was 4.85 µM (inactive). For the same compound, the GI50 (NCI-H460) was 1.13 µM (inactive), the GI50 (MDA-N) was 5.09 µM (inactive) and the GI50 (Hs-578T) was 15.7 µM (inactive). For the same compound, the GI50 (MCF7) was 3.73 µM (inactive), the GI50 (MDA-MB-231) was 1.31 µM (inactive) and the GI50 (CAKI-1) was 3.28 µM (inactive). For the same compound, the GI50 (BT-549) was 18.5 µM (inactive), the GI50 (RPMI-8226) was 1.73 µM (inactive) and the GI50 (KM12) was 12 µM (inactive). For the same compound, the GI50 (HL-60) was 3.6 µM (inactive), the GI50 (IGROV-1) was 10.6 µM (inactive) and the GI50 (SF-268) was 3.82 µM (inactive). The GI50 (K562) was 1.79 µM (inactive), the GI50 (CCRF-CEM) was 2.05 µM (inactive) and the GI50 (DU-145) was 12.3 µM (inactive). The GI50 (786-0) was 3.06 µM (inactive), the GI50 (EKVX) was 14.4 µM (inactive) and the GI50 (ACHN) was 11.8 µM (inactive). The GI50 (UACC-257) was 15.1 µM (inactive), the GI50 (MOLT-4) was 0.738 µM (active) and the GI50 (NCI-H522) was 12.4 µM (inactive). For the same compound, the GI50 (T47D) was 18.3 µM (inactive), the GI50 (SNB-75) was 14.3 µM (inactive) and the GI50 (NCI/ADR-RES) was 2.95 µM (inactive). For the same compound, the GI50 (RXF 393) was 5.94 µM (inactive), the GI50 (SF-539) was 16.7 µM (inactive) and the GI50 (HCT-116) was 1.53 µM (inactive). The GI50 (HCT-15) was 2.2 µM, the GI50 (MDA-MB-435) was 13.6 µM (inactive) and the GI50 (U-251) was 1.63 µM (inactive). The GI50 (HCC 2998) was 11.7 µM (inactive) and the GI50 (HOP-62) was 12.3 µM (inactive).
For `COC(=O)c1s/c(=N\C(=S)N(C)C)n(-c2ccc(Cl)cc2)c1C(=O)OC`, the GI50 (M14) was > 100 µM (inactive), the GI50 (OVCAR-3) was > 100 µM (inactive) and the GI50 (SR) was > 100 µM (inactive). The GI50 (DMS-273) was > 100 µM (inactive), the GI50 (A549) was > 100 µM (inactive) and the GI50 (HT-29) was > 100 µM (inactive). For the same compound, the GI50 (NCI-H226) was > 100 µM (inactive), the GI50 (SNB-19) was > 100 µM (inactive) and the GI50 (KM-20L2) was > 100 µM (inactive). For the same compound, the GI50 (LOX IMVI) was > 100 µM (inactive), the GI50 (UO-31) was > 100 µM (inactive) and the GI50 (OVCAR-5) was > 100 µM (inactive). The GI50 (SK-MEL-5) was > 10 µM (inactive), the GI50 (SNB-78) was > 100 µM (inactive) and the GI50 (Malme-3M) was > 100 µM (inactive). For the same compound, the GI50 (UACC-62) was > 10 µM (inactive), the GI50 (A498) was > 100 µM (inactive) and the GI50 (SF-295) was > 100 µM (inactive). For the same compound, the GI50 (SK-OV-3) was > 10 µM (inactive), the GI50 (NCI-H23) was > 100 µM (inactive) and the GI50 (SW-620) was > 100 µM (inactive). For the same compound, the GI50 (COLO 205) was > 100 µM (inactive), the GI50 (SK-MEL-2) was > 100 µM (inactive) and the GI50 (OVCAR-4) was 56.4 µM (inactive). For the same compound, the GI50 (SK-MEL-28) was > 100 µM (inactive), the GI50 (TK-10) was > 100 µM (inactive) and the GI50 (SN12C) was > 100 µM (inactive). The GI50 (OVCAR-8) was > 100 µM (inactive), the GI50 (NCI-H460) was 71.8 µM (inactive) and the GI50 (CAKI-1) was 59.2 µM (inactive). For the same compound, the GI50 (RPMI-8226) was > 100 µM (inactive), the GI50 (M19-MEL) was > 100 µM (inactive) and the GI50 (KM12) was > 100 µM (inactive). The GI50 (HL-60) was > 100 µM (inactive), the GI50 (IGROV-1) was > 10 µM (inactive) and the GI50 (SF-268) was > 100 µM (inactive). For the same compound, the GI50 (K562) was > 100 µM (inactive), the GI50 (CCRF-CEM) was > 100 µM (inactive) and the GI50 (786-0) was > 100 µM (inactive). For the same compound, the GI50 (EKVX) was > 100 µM (inactive), the GI50 (ACHN) was > 100 µM (inactive) and the GI50 (UACC-257) was > 100 µM (inactive). For the same compound, the GI50 (MOLT-4) was > 100 µM (inactive), the GI50 (NCI-H522) was 49 µM (inactive) and the GI50 (SNB-75) was > 10 µM (inactive). The GI50 (RXF 393) was 78.9 µM (inactive), the GI50 (SF-539) was 95.5 µM (inactive) and the GI50 (HCT-116) was > 100 µM (inactive). The GI50 (HCT-15) was greater than 100 µM, the GI50 (U-251) was > 100 µM (inactive) and the GI50 (HCC 2998) was > 100 µM (inactive). For the same compound, the GI50 (HOP-62) was 70.3 µM (inactive).
